Measurements published in patent publication US20090226952A1, “SCREENING METHOD FOR COMPOUNDS WITH A[…]” (Isis Innovation Limited, priority 2005, published 2009).
Entries after “also recorded” stand apart in the source; their conditions may differ.

Legend:
[1] = test system: transient working neuronal assemblies in in vitro hippocampal slices; test: Optical imaging with voltage sensitive dye Di-4-ANEPPS (ΔF/F) of paired-pulse stimulated hippocampal slices; type: cell-based, rat; conditions: for time for which neurons remain activated / return to resting baseline after peak activation following the second stimulating pulse / effect on population activity / prolongation of activation of the neuronal assembly after the second pulse: optical imaging; for time for which neurons remain activated / return to resting baseline after peak activation following the second stimulating pulse: morphine 10-100 μM, gabapentin 100-150 μM, thiopental 80-150 μM, propofol 10-50 μM, control returns within 60 ms; for effect on population activity / prolongation of activation of the neuronal assembly after the second pulse: vs control ACSF; for optical ΔF/F peak 1 value vs control / optical ΔF/F peak 2 value vs control: paired t-test n=6; for time from peak to half peak activity, peak 2 (t3−t4), vs control: ΔF/F data
Description: (§1) In the study, collective synchronised neuronal activity, i.e. working neuronal assemblies^3, were recorded while monitoring in parallel the underlying synaptic electrical activity (FIG. 1a). Accordingly, the use of the voltage sensitive dye, Di-4-ANEPPS, was combined with standard electrophysiological field potential recordings to measure the excitatory post-synaptic potentials (EPSPs). Under control conditions in physiological saline, electrical stimuli in a paired-pulse paradigm^18 were applied to the Schaffer Collaterals of in vitro hippocampal slices.
(§2) Following terminal anaesthesia using halothane, 400 μm transverse hippocampal slices from 2 week Wistar rats were obtained and left to rest for one hour in a high humidity chamber with oxygenated artificial cerebrospinal fluid (ACSF) (in mM: 124 NaCl, 22 NaHCO3, 10 glucose, 5 KCl, 2 CaCl2, 1.25 MgSO4, 1.25 NaH2PO4) before being submersed in dye solution (4% dye stock solution (in mM: 0.2 mM Di-4-ANEPPS (Molecular Probes, Oregon, USA) in 2.7% ethanol, 0.13% Cremaphor EL), 48% fetal bovine serum and 24% ACSF and 24% ACSF cellulose) for 25 minutes followed by a further one hour rest in the humidity chamber with oxygenated ACSF.
(§3) Electrical stimulation (paired pulse 8-10V, 60 ms interval, 0.1 ms duration) was generated by an isolated stimulator (Digitimer Ltd, UK) via a bipolar electrode (FHC, Maine, USA) and positioned just above the CA3 region. In this way, paired pulses were applied along the Shaffer Collaterals so as to elicit a spreading depolarising wave that formed from the point of stimulation and moved along the pathway towards the CA1 region. A halogen lamp provided the excitatory wavelengths for the dye (through a λ=530±10 nm filter) while the emission was captured on a 2 mm×3 mm CCD sensor (MiCAM01, BrainVision, Tokyo, Japan) through an absorption filter (λ=590 nm). Optical recordings were acquired at a rate of 0.7 ms frame^−1 for 682 frames. 16 optical recordings were averaged for each experimental condition to reduce the effects of dye bleaching and increase the signal-to-noise ratio. Analysis included ΔF/F calculations and a 5×5×3 Gaussian matrix filter (BrainVision Analysis software and Igor Pro 5, Wavemetrics, USA). As indicated above, such optical imaging was combined with standard electrophysiological field potential recordings to measure the excitory post synaptic potentials (EPSPs). […] All statistical comparisons were performed using student t-test of paired samples, n=6; 95% confidence interval.

[2] = test system: in vitro hippocampal slices (Schaffer Collaterals, excitatory post-synaptic potentials); test: Electrophysiological field potential (EPSP) recordings in paired-pulse stimulated hippocampal slices; type: cell-based, rat; conditions: for time from peak to half peak activity, peak 2 (t3−t4), vs control: EPSP data; for paired-pulse facilitation in EPSP recordings, treatment vs control / EPSP peak 1 value vs control / EPSP peak 2 value vs control: morphine 10-100 μM, gabapentin 100-150 μM, thiopental 80-150 μM, propofol 10-50 μM; for EPSP peak 1 value vs control / EPSP peak 2 value vs control: paired t-test n=6
Description: as §1, §2, §3

Row | Compound | time for which neurons remain activated / return to resting baseline after peak activation following the second stimulating pulse [1] | paired-pulse facilitation in ΔF/F recordings, treatment vs control [1] | effect on population activity / prolongation of activation of the neuronal assembly after the second pulse [1] | optical ΔF/F peak 1 value vs control [1] | optical ΔF/F peak 2 value vs control [1] | time from peak to half peak activity, peak 2 (t3−t4), vs control [1] | time from peak to half peak activity, peak 2 (t3−t4), vs control [2] | paired-pulse facilitation in EPSP recordings, treatment vs control [2] | EPSP peak 1 value vs control [2] | EPSP peak 2 value vs control [2]
1 | CN1CC[C@]23c4c5ccc(O)c4O[C@H]2[C@@H](O)C=C[C@H]3[C@H]1C5 [morphine] | ≤ 60 ms |  |  |  |  |  |  |  |  | 
2 | CC(C)c1cccc(C(C)C)c1O [propofol, 2,6-diisopropylphenol] |  | did not significantly change | prolonged activation | did not differ significantly | significant reduction | very highly significant differences | low statistical difference | did not significantly differ | significantly reduced | significantly reduced
3 | NCC1(CC(=O)O)CCCCC1 [gabapentin] | ≤ 60 ms |  | not substantially altered; also recorded: no such effect |  | significant difference | no significant difference | no significant difference | no significant difference | not significantly changed | not significantly changed
4 | CCCC(C)C1(CC)C(=O)NC(=S)NC1=O (stereo not shown) [thiopental, 5-ethyl-5-(1-methylbutyl)-2-thiobarbituricacid] | up to 500 ms | abolished | prolonged activation | did not differ significantly | significant reduction | highly significant | no significant change | abolished | significantly reduced | significantly reduced
